In patent publication US7399760B2, “Pyrimidinedione derivatives” (Bexel Pharmaceuticals Inc., priority 2002, dated 2008):

What was measured:
TNF-α = TNF-α production from LPS-stimulated human monocytes (ELISA); format: cell-based; settings: Monocyte, Conc. 10 μM
Procedure: (§1) This assay determines the effect of test compounds on the production of TNF-α from human monocytes. Compounds were tested for their ability to downregulate the production of TNF-α in activated monocytes. Test compounds were incubated for three, six and twenty four hours with human monocytes. Lipopolysaccharide was used to stimulate the monocytes. The level of TNF-α was quantitated using Enzyme-Linked Immunosorbent assay performed in a 96 well format.

IL-6 = IL-6 production from LPS-stimulated human monocytes (ELISA); format: cell-based; settings: Monocyte, Conc. 10 μM
Procedure: as §1, with “of IL-6” for “of TNF-α”, “Compounds are” for “Compounds were”, “of Interleukin-6 is” for “of TNF-α was”

COX-2 = target: T1, COX-2 (Homo sapiens, UniProt P35354); assay: Human whole blood assay, COX-2 inhibition (PGE2 ELISA after LPS); format: cell-based; settings: Conc. 1 μM, aspirin-treated, LPS 10 μg/ml, 24 h at 37° C., PGE2 in plasma
T1 construct: incubation of human blood with lipopolysaccharide (LPS), which induces COX-2 production in the blood; endogenous in cells; host or cells: fresh human whole blood from male volunteers, treated with aspirin and then LPS
T1 sequence (P35354 18-604): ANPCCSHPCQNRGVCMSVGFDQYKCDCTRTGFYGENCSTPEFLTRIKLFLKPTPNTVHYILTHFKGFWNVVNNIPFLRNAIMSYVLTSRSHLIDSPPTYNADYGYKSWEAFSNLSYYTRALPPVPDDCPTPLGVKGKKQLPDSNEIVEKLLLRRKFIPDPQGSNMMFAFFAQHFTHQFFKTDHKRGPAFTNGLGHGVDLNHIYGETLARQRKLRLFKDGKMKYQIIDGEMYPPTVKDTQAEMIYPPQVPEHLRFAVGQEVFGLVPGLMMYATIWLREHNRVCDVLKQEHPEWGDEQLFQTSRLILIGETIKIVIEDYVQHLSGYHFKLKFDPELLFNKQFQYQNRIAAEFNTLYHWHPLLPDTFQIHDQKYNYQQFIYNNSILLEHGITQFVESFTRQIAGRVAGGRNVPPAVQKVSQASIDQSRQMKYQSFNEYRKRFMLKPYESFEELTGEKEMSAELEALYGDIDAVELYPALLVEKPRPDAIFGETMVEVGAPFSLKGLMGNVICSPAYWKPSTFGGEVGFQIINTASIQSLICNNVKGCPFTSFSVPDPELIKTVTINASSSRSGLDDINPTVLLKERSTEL
Procedure: The COX-2 inhibition activity of the compounds illustrated in the examples was determined by the following method.
Human whole blood provides a protein and cell rich milieu appropriate for the study of biochemical efficacy of anti-inflammatory compounds such as selective COX-2 inhibitors. […] This is correlating with the observation that COX-2 inhibitors have no effect on prostaglandin E2 (PGE2) production in normal blood. These inhibitors are active only after incubation of human blood with lipopolysaccharide (LPS), which induces COX-2 production in the blood.
Fresh blood was collected in tubes containing potassium EDTA by vein puncture from male volunteers. The subjects should have no apparent inflammatory conditions and not taken NSAIDs for atleast 7 days prior to blood collection. Blood was treated with aspirin in vitro (10 μg/ml, at time zero) to inactivate COX-1, and then with LPS (10 μg/ml) along with test agents or vehicle. The blood was incubated for 24 h at 37° C., after which the tubes were centrifuged, the plasma was separated and stored at −80° C. (J Pharmacol Exp Ther 271, 1705, 1994; Proc Natl Acad Sci USA 96, 7563, 1999). The plasma was assayed for PGE2 using Cayman ELISA kit as per the procedure outlined by the manufacturer (Cayman Chemicals, Ann Arbor, USA). […]

melting point	inhibition at 1 µM (COX-2) [%]	SMILES	inhibition at 10 µM (TNF-α) [%]	inhibition at 10 µM (IL-6) [%]
239 to 242 °C (dec.)	–	CSc1ccc(-n2c(-c3ccccc3)cc(=O)[nH]c2=O)cc1 [Example 1, 1-(4-methylsulfanyl-phenyl)-6-phenyl-1H-pyrimidin-2,4-(1H)-dione]	48.5	80.6
235 to 238 °C	–	CSc1ccc(-n2c(-c3ccc(C)cc3)cc(=O)[nH]c2=O)cc1 [Example 2, 1-(4-methylsulfanyl-phenyl)-6-(4-methylphenyl)-1H-pyrimidin-2,4-(1H)-dione]	69.3	78.6
249 to 251 °C	–	CSc1ccc(-n2c(-c3ccc(Cl)cc3)cc(=O)[nH]c2=O)cc1 [Example 3, 1-(4-methylsulfanyl-phenyl)-6-(4-chlorophenyl)-1H-pyrimidin-2,4-(1H)-dione]	–	–
285 to 288 °C	40.8	Cc1ccc(-c2cc(=O)[nH]c(=O)n2-c2ccc(S(C)(=O)=O)cc2)cc1 [Example 7]	57.6	81.3
266 to 268 °C	–	CSc1ccc(-c2cc(=O)[nH]c(=O)n2-c2ccc(C)cc2)cc1 [Example 4, 1-(4-methylphenyl)-6-(4-methylsulfanyl-phenyl)-1H-pyrimidin-2,4-(1H)-dione]	–	–
294 to 298 °C	–	CS(=O)(=O)c1ccc(-n2c(-c3ccc(Cl)cc3)cc(=O)[nH]c2=O)cc1 [Example 8, 6-(4-chlorophenyl)-1-(4-methylsulfonyl-phenyl)-1H-pyrimidin-2,4-(1H)-dione]	–	–
283 to 287 °C (dec.)	–	CS(=O)(=O)c1ccc(-n2c(-c3ccccc3)cc(=O)[nH]c2=O)cc1 [Example 6, 1-(4-methylsulfonyl-phenyl)-6-phenyl-pyrimidin-1H-pyrimidin-2,4-(1H)-dione]	43.2	75.3
282 to 285 °C	–	CSc1ccc(-c2cc(=O)[nH]c(=O)n2-c2ccc(Br)cc2)cc1 [Example 5, 1-(4-bromophenyl)-6-(4-methylsulfanyl-phenyl)-1H-pyrimidin-2,4-(1H)-dione]	–	–
